Reference: patent publication US10059688B2, “Protein tyrosine kinase modulators and methods of use” (BETTA PHARMACEUTICALS CO., LTD., priority 2013, dated 2018)
One block for each compound: values may come before it.

Key:
EGFR (T790M, L858R) (h) = EGFR (T790M, L858R) (h) (Homo sapiens (Human), UniProt P00533, L858R/T790M); assay: Kinase assay, single dose inhibition (Millipore, 33P-ATP filter binding); assay type: biochemical; details: 0.1 μM test compound, 10 μM ATP; remaining activity relative to DMSO control = 100%
Chain of EGFR (T790M, L858R) (h) (P00533 25-1210 T790M/L858R): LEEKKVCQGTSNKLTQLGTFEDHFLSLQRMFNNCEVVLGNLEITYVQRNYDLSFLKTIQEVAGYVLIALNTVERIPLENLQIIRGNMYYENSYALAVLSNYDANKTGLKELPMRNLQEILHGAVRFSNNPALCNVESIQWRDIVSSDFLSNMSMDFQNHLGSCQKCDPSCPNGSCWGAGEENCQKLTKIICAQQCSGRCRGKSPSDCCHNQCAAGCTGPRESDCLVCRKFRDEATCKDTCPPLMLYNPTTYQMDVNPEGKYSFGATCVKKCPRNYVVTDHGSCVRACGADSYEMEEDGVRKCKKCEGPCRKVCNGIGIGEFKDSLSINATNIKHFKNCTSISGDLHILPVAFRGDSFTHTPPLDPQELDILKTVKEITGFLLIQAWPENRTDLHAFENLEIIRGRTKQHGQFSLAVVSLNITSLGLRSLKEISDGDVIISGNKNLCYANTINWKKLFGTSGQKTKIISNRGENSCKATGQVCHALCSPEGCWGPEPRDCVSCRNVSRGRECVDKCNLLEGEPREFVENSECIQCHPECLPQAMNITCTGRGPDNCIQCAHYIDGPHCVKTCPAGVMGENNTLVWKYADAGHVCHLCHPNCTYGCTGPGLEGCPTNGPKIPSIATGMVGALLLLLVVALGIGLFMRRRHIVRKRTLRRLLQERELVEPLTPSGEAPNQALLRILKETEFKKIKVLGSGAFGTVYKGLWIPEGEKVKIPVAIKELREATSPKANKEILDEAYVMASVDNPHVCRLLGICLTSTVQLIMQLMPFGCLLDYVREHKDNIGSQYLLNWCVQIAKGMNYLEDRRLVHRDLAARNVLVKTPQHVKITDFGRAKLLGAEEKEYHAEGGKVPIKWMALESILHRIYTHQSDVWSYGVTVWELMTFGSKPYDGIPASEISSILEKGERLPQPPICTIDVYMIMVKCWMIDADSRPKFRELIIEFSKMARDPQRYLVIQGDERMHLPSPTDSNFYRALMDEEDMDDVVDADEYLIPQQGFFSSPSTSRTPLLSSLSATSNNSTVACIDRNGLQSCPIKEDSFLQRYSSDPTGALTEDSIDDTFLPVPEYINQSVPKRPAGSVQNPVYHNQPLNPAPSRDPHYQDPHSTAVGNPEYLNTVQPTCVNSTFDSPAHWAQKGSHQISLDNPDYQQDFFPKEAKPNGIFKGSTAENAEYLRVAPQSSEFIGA

ALK (h) = ALK (h) (Homo sapiens (Human), UniProt Q9UM73); assay: as above; assay type: biochemical; details: 0.1 μM test compound, 10 μM ATP; remaining activity relative to DMSO control = 100%
EGFR (T790M) (h) = EGFR (T790M) (h) (Homo sapiens (Human), UniProt P00533, T790M); assay: as above; assay type: biochemical; details: 0.1 μM test compound, 10 μM ATP; remaining activity relative to DMSO control = 100%
Chain of EGFR (T790M) (h) (P00533 25-1210 T790M): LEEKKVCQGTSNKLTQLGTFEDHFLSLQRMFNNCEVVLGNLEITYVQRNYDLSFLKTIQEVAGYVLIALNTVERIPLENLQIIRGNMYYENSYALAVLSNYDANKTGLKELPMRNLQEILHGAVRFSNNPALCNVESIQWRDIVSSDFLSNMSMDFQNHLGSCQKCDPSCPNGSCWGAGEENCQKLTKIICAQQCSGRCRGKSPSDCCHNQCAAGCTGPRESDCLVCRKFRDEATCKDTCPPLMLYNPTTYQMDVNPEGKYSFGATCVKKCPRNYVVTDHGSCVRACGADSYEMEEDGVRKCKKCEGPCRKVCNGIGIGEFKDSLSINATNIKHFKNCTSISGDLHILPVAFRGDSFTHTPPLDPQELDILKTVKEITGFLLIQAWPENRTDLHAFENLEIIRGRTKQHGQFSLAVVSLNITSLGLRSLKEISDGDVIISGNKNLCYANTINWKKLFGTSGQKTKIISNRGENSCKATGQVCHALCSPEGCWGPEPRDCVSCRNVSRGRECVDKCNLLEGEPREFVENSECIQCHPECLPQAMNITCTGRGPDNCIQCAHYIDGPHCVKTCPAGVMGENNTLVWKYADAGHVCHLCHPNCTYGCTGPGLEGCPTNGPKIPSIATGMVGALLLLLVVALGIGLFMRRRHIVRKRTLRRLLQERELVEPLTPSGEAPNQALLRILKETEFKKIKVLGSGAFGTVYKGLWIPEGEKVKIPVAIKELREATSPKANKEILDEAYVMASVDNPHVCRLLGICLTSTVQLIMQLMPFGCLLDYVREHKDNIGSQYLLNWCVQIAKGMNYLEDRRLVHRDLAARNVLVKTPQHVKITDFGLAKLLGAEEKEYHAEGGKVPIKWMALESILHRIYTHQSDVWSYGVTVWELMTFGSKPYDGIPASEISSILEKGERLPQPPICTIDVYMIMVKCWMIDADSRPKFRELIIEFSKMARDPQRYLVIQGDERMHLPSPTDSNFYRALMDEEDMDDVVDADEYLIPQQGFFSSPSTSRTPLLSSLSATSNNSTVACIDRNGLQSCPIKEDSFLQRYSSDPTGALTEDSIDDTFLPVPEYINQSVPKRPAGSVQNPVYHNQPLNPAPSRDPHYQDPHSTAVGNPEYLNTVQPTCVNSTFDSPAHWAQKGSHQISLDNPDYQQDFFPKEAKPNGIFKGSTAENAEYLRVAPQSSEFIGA

[1] = test system: H1975 (EGFR L858R/T790M) NSCLC cells; assay: Cell proliferation assay (MTS cell viability); assay type: cell-based; details: Homo sapiens, NCI-H1975, 72 h; H1975 cells, 3 days of exposure, MTS
[2] = test system: HCC827 (EGFR Del) NSCLC cells; assay: Cell proliferation assay (MTS cell viability); assay type: cell-based; details: Homo sapiens, 72 h; HCC827 cells, 3 days of exposure, MTS
EGFR (h) = EGFR (h) (Homo sapiens (Human), UniProt P00533); assay: Kinase assay, single dose inhibition (Millipore, 33P-ATP filter binding); assay type: biochemical; details: 0.1 μM test compound, 10 μM ATP; remaining activity relative to DMSO control = 100%
Chain of EGFR (h) (P00533 25-1210): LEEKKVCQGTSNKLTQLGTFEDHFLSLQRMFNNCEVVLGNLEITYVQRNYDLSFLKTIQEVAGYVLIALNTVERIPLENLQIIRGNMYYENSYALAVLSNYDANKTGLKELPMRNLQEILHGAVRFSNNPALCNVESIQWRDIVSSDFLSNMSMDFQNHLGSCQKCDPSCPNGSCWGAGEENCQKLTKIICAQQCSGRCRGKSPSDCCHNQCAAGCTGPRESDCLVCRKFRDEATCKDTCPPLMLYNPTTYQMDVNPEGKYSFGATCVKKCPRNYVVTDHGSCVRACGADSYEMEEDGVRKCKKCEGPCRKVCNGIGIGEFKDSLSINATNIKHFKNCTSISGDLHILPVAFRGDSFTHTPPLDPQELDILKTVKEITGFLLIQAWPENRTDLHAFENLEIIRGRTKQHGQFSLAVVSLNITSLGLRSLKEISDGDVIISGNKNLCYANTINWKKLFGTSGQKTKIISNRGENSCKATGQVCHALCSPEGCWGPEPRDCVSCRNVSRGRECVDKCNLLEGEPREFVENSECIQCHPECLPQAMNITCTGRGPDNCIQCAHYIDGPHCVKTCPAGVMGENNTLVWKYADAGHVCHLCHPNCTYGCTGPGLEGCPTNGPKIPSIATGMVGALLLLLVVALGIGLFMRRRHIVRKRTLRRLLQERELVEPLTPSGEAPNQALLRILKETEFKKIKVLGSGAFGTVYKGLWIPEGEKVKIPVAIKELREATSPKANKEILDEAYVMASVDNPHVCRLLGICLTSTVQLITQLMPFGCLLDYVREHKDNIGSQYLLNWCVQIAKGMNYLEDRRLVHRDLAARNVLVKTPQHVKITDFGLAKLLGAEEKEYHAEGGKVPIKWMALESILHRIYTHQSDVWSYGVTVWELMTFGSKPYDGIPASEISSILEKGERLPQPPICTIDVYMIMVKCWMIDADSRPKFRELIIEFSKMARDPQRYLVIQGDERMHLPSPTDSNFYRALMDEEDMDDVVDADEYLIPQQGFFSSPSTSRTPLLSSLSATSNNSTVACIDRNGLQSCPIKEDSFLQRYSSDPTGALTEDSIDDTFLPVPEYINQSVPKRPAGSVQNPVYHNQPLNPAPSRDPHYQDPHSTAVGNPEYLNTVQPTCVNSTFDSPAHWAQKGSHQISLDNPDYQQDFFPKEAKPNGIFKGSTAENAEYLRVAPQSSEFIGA

[3] = test system: A549 (EGFR WT) NSCLC cells; assay: Cell proliferation assay (MTS cell viability); assay type: cell-based; details: Homo sapiens, 72 h; A549 cells, 3 days of exposure, MTS
EGFR (L858R) (h) = EGFR (L858R) (h) (Homo sapiens (Human), UniProt P00533, L858R); assay: Kinase assay, single dose inhibition (Millipore, 33P-ATP filter binding); assay type: biochemical; details: 0.1 μM test compound, 10 μM ATP; remaining activity relative to DMSO control = 100%
Chain of EGFR (L858R) (h) (P00533 25-1210 L858R): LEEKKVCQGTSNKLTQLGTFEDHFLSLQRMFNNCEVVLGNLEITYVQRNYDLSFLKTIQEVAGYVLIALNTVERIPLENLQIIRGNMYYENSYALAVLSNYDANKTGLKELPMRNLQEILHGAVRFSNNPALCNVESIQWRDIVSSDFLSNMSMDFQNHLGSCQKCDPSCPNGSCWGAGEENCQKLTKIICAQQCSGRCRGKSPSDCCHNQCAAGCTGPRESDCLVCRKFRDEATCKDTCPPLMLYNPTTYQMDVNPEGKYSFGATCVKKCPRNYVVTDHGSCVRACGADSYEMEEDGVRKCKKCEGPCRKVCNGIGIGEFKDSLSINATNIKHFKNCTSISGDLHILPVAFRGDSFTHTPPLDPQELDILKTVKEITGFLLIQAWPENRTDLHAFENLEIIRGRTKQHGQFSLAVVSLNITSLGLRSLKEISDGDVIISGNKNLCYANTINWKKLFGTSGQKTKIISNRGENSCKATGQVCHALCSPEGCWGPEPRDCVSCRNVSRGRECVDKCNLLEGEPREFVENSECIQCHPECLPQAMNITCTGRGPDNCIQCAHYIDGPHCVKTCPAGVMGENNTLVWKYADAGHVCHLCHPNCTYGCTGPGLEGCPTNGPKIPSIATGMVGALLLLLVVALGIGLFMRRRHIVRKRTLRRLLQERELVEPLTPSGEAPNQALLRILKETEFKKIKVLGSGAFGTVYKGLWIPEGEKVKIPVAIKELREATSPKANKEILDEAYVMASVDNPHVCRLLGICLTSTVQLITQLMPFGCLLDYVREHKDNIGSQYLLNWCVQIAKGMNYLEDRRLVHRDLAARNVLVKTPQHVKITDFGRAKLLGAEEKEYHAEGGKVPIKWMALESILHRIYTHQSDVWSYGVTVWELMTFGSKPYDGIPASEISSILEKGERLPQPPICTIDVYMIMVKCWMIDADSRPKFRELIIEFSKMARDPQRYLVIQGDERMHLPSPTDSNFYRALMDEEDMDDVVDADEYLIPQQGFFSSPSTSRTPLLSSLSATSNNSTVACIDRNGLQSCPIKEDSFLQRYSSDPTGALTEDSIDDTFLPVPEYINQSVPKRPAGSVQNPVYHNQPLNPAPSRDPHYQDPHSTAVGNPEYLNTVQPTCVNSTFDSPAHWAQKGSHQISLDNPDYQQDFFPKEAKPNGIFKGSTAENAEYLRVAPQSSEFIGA

A431 (EGFR WT) cells = assay: Cell proliferation assay (MTS cell viability); assay type: cell-based; details: Homo sapiens, A-431, 72 h, 3 days of exposure

IC50 [1]: 310 nM | IC50 [2]: 1050 nM | IC50 [3]: 1370 nM
Structure (SMILES): C/C=C/C(=O)Nc1ccc(OC)c(Nc2ncc(Cl)c(Nc3ccccc3C(=O)C(=O)N(C)C)n2)c1 [Example 70, (E)-N-(3-(5-chloro-4-(2-(2-(dimethylamino)-2-oxoacetyl)phenylamino)pyrimidin-2-ylamino)-4-methoxyphenyl)but-2-enamide]

IC50 (A431 (EGFR WT) cells): 210 nM | Activity (control) % EGFR (T790M, L858R) (h) (EGFR (T790M, L858R) (h)): 2% | Activity (control) % ALK (h) (ALK (h)): 19% | Activity (control) % EGFR (T790M) (h) (EGFR (T790M) (h)): 5% | IC50 [1]: 10 nM | IC50 [2]: 20 nM | Activity (control) % EGFR (h) (EGFR (h)): 93% | Activity (control) % EGFR (L858R) (h) (EGFR (L858R) (h)): 47%
Structure (SMILES): C=C(CN(C)CCN(C)C)C(=O)Nc1ccc(OC)c(Nc2ncc(Cl)c(Nc3ccccc3C(=O)C(=O)N(C)C)n2)c1 [Example 126, N-(3-(5-chloro-4-(2-(2-(dimethylamino)-2-oxoactyl)phenylamino)pyrimidin-2-ylamino)-4-methoxyphenyl)-2-(((2-(dimethylamino)ethyl)(methyl)amino)methyl)acrylamide]

The next lines start with the compound.

Structure (SMILES): COc1cc(N2CCC(N(C)C)CC2)ccc1Nc1ncc(Cl)c(Nc2ccccc2C(=O)C(N)=O)n1 [Example 4, 2-(2-(5-chloro-2-(4-(4-(dimethylamino)piperidin-1-yl)-2-methoxyphenylamino)pyrimidin-4-ylamino)phenyl)-2-oxoacetamide]
Activity (control) % EGFR (T790M, L858R) (h) (EGFR (T790M, L858R) (h)): 2% | Activity (control) % ALK (h) (ALK (h)): 8% | Activity (control) % EGFR (T790M) (h) (EGFR (T790M) (h)): 4% | IC50 [1]: > 3000 nM | IC50 [2]: 2630 nM | Activity (control) % EGFR (h) (EGFR (h)): 65% | IC50 [3]: > 3000 nM | Activity (control) % EGFR (L858R) (h) (EGFR (L858R) (h)): 8%

Structure (SMILES): COc1cc(N2CCC(N(C)C)CC2)ccc1Nc1ncc(Cl)c(Nc2ccccc2C(=O)C(=O)N(C)C)n1 [Example 17, 2-(2-((5-chloro-2-((4-(4-(dimethylamino)piperidin-1-yl)-2-methoxyphenyl)amino)pyrimidin-4-yl)amino)phenyl)-N,N-dimethyl-2-oxoacetamide]
IC50 (A431 (EGFR WT) cells): 260 nM | IC50 [1]: 860 nM | IC50 [2]: 1230 nM | IC50 [3]: > 3000 nM

Structure (SMILES): C=CC(=O)Nc1cccc(Nc2ncc(Cl)c(Nc3ccccc3C(=O)C(=O)N(C)C)n2)c1 [Example 40, N-(3-(5-chloro-4-(2-(2-(dimethylamino)-2-oxoacetyl)phenylamino)pyrimidin-2-ylamino)phenyl)acrylamide]
Activity (control) % EGFR (T790M, L858R) (h) (EGFR (T790M, L858R) (h)): 24% | Activity (control) % ALK (h) (ALK (h)): 28% | Activity (control) % EGFR (T790M) (h) (EGFR (T790M) (h)): 79% | IC50 [1]: 10 nM | IC50 [2]: 70 nM | Activity (control) % EGFR (h) (EGFR (h)): 106% | IC50 [3]: 640 nM | Activity (control) % EGFR (L858R) (h) (EGFR (L858R) (h)): 103%

Structure (SMILES): C=CC(=O)Nc1cc(Nc2ncc(Cl)c(Nc3ccccc3C(=O)C(=O)NC)n2)ccc1OC [Example 64, N-(5-(5-chloro-4-(2-(2-(methylamino)-2-oxoacetyl)phenylamino)pyrimidin-2-ylamino)-2-methoxyphenyl)acrylamide]
Activity (control) % EGFR (T790M, L858R) (h) (EGFR (T790M, L858R) (h)): 39% | Activity (control) % ALK (h) (ALK (h)): 47% | Activity (control) % EGFR (T790M) (h) (EGFR (T790M) (h)): 79% | IC50 [1]: 90 nM | IC50 [2]: 450 nM | Activity (control) % EGFR (h) (EGFR (h)): 106% | IC50 [3]: > 3000 nM | Activity (control) % EGFR (L858R) (h) (EGFR (L858R) (h)): 100%

Structure (SMILES): C=CC(=O)Nc1cc(Nc2ncc(Cl)c(Nc3ccccc3C(=O)C(=O)N(C)C)n2)c(F)cc1OC [Example 69, N-(5-(5-chloro-4-(2-(2-(dimethylamino)-2-oxoactyl)phenylamino)pyrimidin-2-ylamino)-4-fluoro-2-methoxyphenyl)acrylamide]
IC50 [1]: 310 nM | IC50 [2]: 1200 nM | IC50 [3]: > 3000 nM

Structure (SMILES): C=CC(=O)Nc1ccc(OC)c(Nc2ncc(Cl)c(Nc3ccccc3C(=O)C(=O)N(CC)CC)n2)c1 [Example 131, N-(3-(5-chloro-4-(2-(2-(diethylamino)-2-oxoacetyl)phenylamino)pyrimidin-2-ylamino)-4-methoxyphenyl)acrylamide]
IC50 (A431 (EGFR WT) cells): 750 nM | Activity (control) % EGFR (T790M, L858R) (h) (EGFR (T790M, L858R) (h)): 27% | Activity (control) % ALK (h) (ALK (h)): 9% | Activity (control) % EGFR (T790M) (h) (EGFR (T790M) (h)): 82% | IC50 [1]: 10 nM | IC50 [2]: 50 nM | Activity (control) % EGFR (h) (EGFR (h)): 104% | Activity (control) % EGFR (L858R) (h) (EGFR (L858R) (h)): 104%
